This test relates to Rat bone marrow stem cells (mesenchymal stem cells). The test can be described thus: Cell proliferation-promoting activity, WST-8 colorimetry (OD450). Particulars: WST-8, 2 hours; for OD450 day 4: four days from start of incubation; for OD450 day 4 / OD450 day 2: bFGF at 10 ng/mL; for OD450 Start: start of the incubation (day 0), 1×10^3 cells per well; for OD450 day 2: two days from start of incubation. Format: cell-based. How it is done:
The cell proliferation-promoting peptides (Samples 1 to 8) obtained in Example 1 and the peptides composed of only a (A) part sequence (Samples 9 to 11) which had been prepared for comparison were evaluated, respectively, on the cell proliferation-promoting activity. Sample 12 was an experimental control where a commercial bFGF was used as the cell proliferation promoter. Sample 13 was an experimental control where no peptide was added (bFGF was not added, either). The evaluation assay is described in detail below. Each synthesized peptide sample was dissolved in PBS (phosphate buffered saline) to prepare a stock solution having a peptide concentration of 1 mM.
Rat bone marrow stem cells (mesenchymal stem cells) were used as the test cells. In particular, the test stem cells were subcultured in Dulbecco MEM (DMEM: a Gibco product) containing 10% fetal bovine serum (FBS: a Gibco product), 2 mM of L-glutamine, 50 unit/mL of penicillin, and 50 μg/mL of streptomycin. Passage 2 cells were used for the evaluation.
The test stem cells that had been pre-incubated overnight in the DMEM containing 10 ng/mL of bFGF were collected and seeded at 1×10^3 cells per well in a 96-well plate. The amount of the culture medium was […] per well.
Then, the stock solutions containing respective peptides of Samples 1 to 11 were added to some wells, one for each well. For comparison, a commercial bFGF (a PeproTech product) was added at a concentration of 10 ng/mL to some other wells (Sample 12). Similarly, yet some other wells were set up to not to contain any of the sample peptides or bFGF (Sample 13).
After a sample peptide or bFGF was added as described above, the 96-well plate was placed in a CO2 incubator and incubated standing at 37° C. and 5% CO2. Exchange of the culture medium was carried out every other day. The culture medium used for an exchange was the same as the culture medium used initially for the incubation (i.e., for the group containing a sample peptide or bFGF, the same sample peptide or bFGF was added to the exchanged culture medium).
During the course of this incubation assay, water-soluble tetrazolium salt (WST-8) was added to some wells as a staining reagent at the start of the incubation (day 0), when two days had passed from the start (day 2) and when four days had passed from the start (day 4). Incubated for 2 hours after the addition, the cell culture medium with the added staining reagent was collected. The level of cell proliferation was evaluated by colorimetry as optical density measured at 450 nm (OD450) based on reduction of the tetrazolium salt.

Where no end group is shown, it is not given here.

Regarding “YGRKKRRQRRRTLKERCLQVVRSLVK (YGRKKRRQRRRTLKERCLQVVRSLVK-NH2) [Sample 7]”, the “OD450 day 4” value came out at 2.279, the “OD450 Start” value was found to be 0.124 and the “OD450 day 2” value stood at 1.340.
Regarding “KKRTLRKNDRKKR (KKRTLRKNDRKKR-NH2) [Sample 9, reference compound]”, the “OD450 day 4” value stood at 1.260, the “OD450 Start” value came to 0.124 and the “OD450 day 2” value was 0.648.
For “YARAAARQARA SLQYLCRFVIRQYTR (YARAAARQARASLQYLCRFVIRQYTR-NH2) [Sample 8]” the same measures were 1.828, 0.124 and 0.856.
For “TLDGGDIINALCFS KKRTLRKNDRKKR (TLDGGDIINALCFSKKRTLRKNDRKKR-NH2) [Sample 2]” the same measures were 2.259, 0.124 and 1.133.
On to “YARAAARQARA (YARAAARQARA-NH2) [Sample 10, reference compound]”, for which the “OD450 day 4” value amounted to 1.737, the “OD450 Start” value is listed as 0.124 and the “OD450 day 2” value is given as 0.770.
For “WRRQARFK TLKERCLQVVRSLVK (WRRQARFKTLKERCLQVVRSLVK) [Sample 6]” the same measures were 2.365, 0.124 and 1.181.
Regarding “KKRTLRKNDRKKR TLKERCLQVVRSLVK (KKRTLRKNDRKKRTLKERCLQVVRSLVK) [Sample 4]”, the “OD450 day 4” value is 2.410, the “OD450 Start” value was 0.124 and the “OD450 day 2” value was determined as 1.357.
In the same order, the values of “TLKERCLQVVRSLVK KKRTLRKNDRKKR (TLKERCLQVVRSLVKKKRTLRKNDRKKR) [Sample 1]” are 2.369, 0.124 and 1.264.
Take “WRRQARFK [Sample 11, reference compound]”: the “OD450 day 4” value stood at 1.744, the “OD450 Start” value is 0.124 and the “OD450 day 2” value amounted to 0.799.
Consider “KKRTLRKNDRKKR LLGNSSPRTQSPQNC (KKRTLRKNDRKKRLLGNSSPRTQSPQNC-NH2) [Sample 3]”, for which the “OD450 day 4” value came out at 2.289, the “OD450 Start” value came to 0.124 and the “OD450 day 2” value is listed as 1.177.
In the case of “Sample 12: experimental control: commercial bFGF (basic fibroblast growth factor, a PeproTech product) at 10 ng/mL”, the “OD450 day 4” value is listed as 1.977, the “OD450 Start” value is 0.124 and the “OD450 day 2” value came out at 1.022.
On to “YARAAARQARA TLKERCLQVVRSLVK (YARAAARQARATLKERCLQVVRSLVK) [Sample 5]”, for which the “OD450 day 4” value turned out to be 1.971, the “OD450 Start” value was determined as 0.124 and the “OD450 day 2” value was found to be 0.926.
